According to patent publication US20210236678A1, “HOUSEHOLD PRODUCT DELIVERING WARMING AND/OR TINGLING SENSATIONS” (TAKASAGO INTERNATIONAL CORPORATION, priority 2016, published 2021):

Tests used:
[1] = system: tingling perception in the nose; test: Perception test for tingling agents (panel smells samples; rating and ranking); format: in vivo; conditions: panel of 20 subjects, smelled
Description: The reference spilanthol is contained in jambu and known for its tingling effect on the skin/the tongue (U.S. Pat. No. 9,890,567; J. Paulraj et al., Advances in Pharmacological Sciences, Vol. 2013, Article ID 510298, 22 pages). The samples were prepared as solutions of the pure raw materials at 1% in Triethyl Citrate (TEC), and portions decanted into small jars for testing. In a first part of the evaluation, the subjects of the panel smell the samples one by one and rate them on the following scale: tingling perception in the nose: 0 (not at all) to 100 (very strong sensation). In a second part of the evaluation, the subjects of the panel rank the […] agents from the less tingling agent (rank 1) to the more tingling agents (rank 4). The mean values obtain for the ranking where as follows: […]

human TRPA1 = target: T1, human TRPA1 (Homo sapiens, UniProt O75762); test: Screening on receptors TRPA1 (Fluo-8 calcium fluorescence, FLIPR, HEK-293 cells); format: cell-based; conditions: for EC50: HEK-293 cells stably transfected with human TRPA1, agonist, normalised to spilanthol EC100, elemi oil molarity assumes molecular weight of elemol; for agonist activity on TRPA1 compared to spilanthol (reference): HEK-293 cells with human TRPA1
T1 construct: expressed in transfected cells; host or cells: HEK-293
T1 sequence (O75762 whole entry): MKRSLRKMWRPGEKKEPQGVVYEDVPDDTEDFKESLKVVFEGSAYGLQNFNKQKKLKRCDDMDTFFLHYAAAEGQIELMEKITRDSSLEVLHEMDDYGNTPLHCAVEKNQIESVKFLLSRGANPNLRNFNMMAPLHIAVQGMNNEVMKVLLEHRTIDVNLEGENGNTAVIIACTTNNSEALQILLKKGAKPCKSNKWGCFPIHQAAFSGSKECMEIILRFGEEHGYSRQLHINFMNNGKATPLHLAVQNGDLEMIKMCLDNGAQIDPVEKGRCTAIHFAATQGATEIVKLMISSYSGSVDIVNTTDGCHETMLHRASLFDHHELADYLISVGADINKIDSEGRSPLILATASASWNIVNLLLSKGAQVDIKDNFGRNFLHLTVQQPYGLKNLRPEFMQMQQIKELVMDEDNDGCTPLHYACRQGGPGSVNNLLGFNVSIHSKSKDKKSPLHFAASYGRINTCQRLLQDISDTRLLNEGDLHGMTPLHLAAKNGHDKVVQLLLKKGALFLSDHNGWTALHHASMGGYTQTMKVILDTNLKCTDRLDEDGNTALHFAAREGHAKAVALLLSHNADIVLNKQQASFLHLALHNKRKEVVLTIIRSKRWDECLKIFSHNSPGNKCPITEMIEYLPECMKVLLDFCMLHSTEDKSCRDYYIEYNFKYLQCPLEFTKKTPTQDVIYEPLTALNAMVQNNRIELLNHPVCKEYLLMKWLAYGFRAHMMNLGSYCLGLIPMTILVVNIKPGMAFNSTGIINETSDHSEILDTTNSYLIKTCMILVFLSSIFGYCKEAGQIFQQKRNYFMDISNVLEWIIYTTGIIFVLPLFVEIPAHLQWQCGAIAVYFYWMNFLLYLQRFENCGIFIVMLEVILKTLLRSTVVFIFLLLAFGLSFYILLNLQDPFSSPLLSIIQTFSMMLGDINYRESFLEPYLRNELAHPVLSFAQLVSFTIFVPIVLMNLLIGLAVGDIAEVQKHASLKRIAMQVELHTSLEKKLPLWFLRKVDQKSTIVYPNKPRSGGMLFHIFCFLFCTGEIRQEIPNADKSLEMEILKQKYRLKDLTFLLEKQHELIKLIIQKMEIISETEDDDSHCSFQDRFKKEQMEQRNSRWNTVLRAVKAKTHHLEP
Description: The following are the test protocols used in determining whether fragrance ingredients show a response on the TRPA1 and TRPV1 receptors which are associated with tingling and warming sensations respectively. In all cases, the reaction is measured by fluorescence imaging using high throughput screening equipment.
Method for Screening on Receptors TRPA1:
HEK-293 (Human Embryonic Kidney) cells stably transfected with human TRPA1 were grown in a culture medium of EMEM (medium Essential Medium Eagle with Earl's salts balanced salt solution (Lonza catalogue No BE12-125F), 5 mL of 200 mM Ultraglutamine 1 (Lonza Catalogue No BE17-605E/U1), 5 mL of 100× Penicillin/Streptomycin (Lonza Catalogue No DE17-602E) 50 mL of Fetal bovine serum (Euroclone Cat No ECS0180L) 2 mL of 100 mg/mL Genticin sulphate (G418 sulphate InvivoGen CatAnt-gn-5).
10,000 cells/well were seeded in a 384 MTP in complete medium. Then, after 24 hours, the culture medium was manually removed. The cells were loaded with 20 μL/well of 0.5× Fluo-8 NW dye in standard Tyrode's buffer (Screen Quest™ Fluo-8 No wash Calcium assay kit supplied by AAT Bioquest catalogue No 26316). The plate was incubated for 1 hour at room temperature in the dark. 10 μL/well of test chemaesthetic agents were injected and controlled with the FLIPR^TETRA (Molecular Devices). The emitted fluorescence signal at 520 nm was recorded for 3 minutes. The compound multiwall plate contained the samples at 8 different doses in quadruplicate data points. Dose response of the samples were performed starting from 100 mM concentration in 100% DMSO with a serial dilution of 1:2 and then diluted in assay buffer at the final concentration of 100 μM, 50 μM, 25 μM, 12.5 μM, 6 μM, 3 μM, 1.5 μM, and 0.7 μM.
In the compound plate were also present a dose response of the reference agonist at 8 concentrations and in duplicate. Spilanthol was the reference agonist for TRPA1 in this study. These reference controls dosed as 16 wells (duplicates for each concentration) of reference agonist at ECioo corresponded to the MAX signal response (100% activity).
There were also 16 wells of blanks, i.e. assay buffers without either a test sample or reference compound which corresponded to the MIN signal response (0% activity). MAX and MIN controls were used for data analysis (RZ' calculation) and normalization of compound activity.
For data analysis the response value was calculated as the maximum signal of the kinetic trace after the injection minus the median of the points before injection and multiplied by the normalization factor (NF). The normalisation factor was the baseline mean of all wells in the plate divided by the baseline of a specific well.
To calculate the % of activity of the sample the response value was normalized versus MAX signal controls and MIN Signal controls to obtain the activity % according to the following formula: […]
The normalized data in percent activity were then used to perform curve fitting and EC50 calculation corresponding to the concentration that gave 50% of activation of the receptor (within a curve fitting program within the data analysis software).

[2] = system: tingling sensation in the nose; conditions: 3% in Triethyl Citrate (TEC); panel of 80 subjects; scale 0 to +100
[3] = system: warming perception in the nose; test: Perception test for warming agents (panel smells samples; rating and ranking); format: in vivo; conditions: panel of 20 subjects; for Nemenyi multiple comparison test of warming ranking vs reference capsaicin / Mean rank (less warming = rank 1, more warming = rank 4): 1% in TEC; for Mean rank (less warming = rank 1, more warming = rank 4) / warming perception in the nose (rating), compared to the reference capsaicin: smelled; for warming perception in the nose (rating), compared to the reference capsaicin: 1% in Triethyl Citrate (TEC), scale 0 to 100, ANOVA and Student's t-test
human TRPV1 = target: T2, human TRPV1 (Homo sapiens, UniProt Q8NER1); test: Screening on receptors TRPV1 (fluorescence imaging, CHO-K1 cells); format: cell-based; conditions: for agonist activity on TRPV1 compared to capsaicin (reference): CHO-K1 cells with human TRPV1
T2 construct: expressed in transfected cells; host or cells: CHO-K1
T2 sequence (Q8NER1 whole entry): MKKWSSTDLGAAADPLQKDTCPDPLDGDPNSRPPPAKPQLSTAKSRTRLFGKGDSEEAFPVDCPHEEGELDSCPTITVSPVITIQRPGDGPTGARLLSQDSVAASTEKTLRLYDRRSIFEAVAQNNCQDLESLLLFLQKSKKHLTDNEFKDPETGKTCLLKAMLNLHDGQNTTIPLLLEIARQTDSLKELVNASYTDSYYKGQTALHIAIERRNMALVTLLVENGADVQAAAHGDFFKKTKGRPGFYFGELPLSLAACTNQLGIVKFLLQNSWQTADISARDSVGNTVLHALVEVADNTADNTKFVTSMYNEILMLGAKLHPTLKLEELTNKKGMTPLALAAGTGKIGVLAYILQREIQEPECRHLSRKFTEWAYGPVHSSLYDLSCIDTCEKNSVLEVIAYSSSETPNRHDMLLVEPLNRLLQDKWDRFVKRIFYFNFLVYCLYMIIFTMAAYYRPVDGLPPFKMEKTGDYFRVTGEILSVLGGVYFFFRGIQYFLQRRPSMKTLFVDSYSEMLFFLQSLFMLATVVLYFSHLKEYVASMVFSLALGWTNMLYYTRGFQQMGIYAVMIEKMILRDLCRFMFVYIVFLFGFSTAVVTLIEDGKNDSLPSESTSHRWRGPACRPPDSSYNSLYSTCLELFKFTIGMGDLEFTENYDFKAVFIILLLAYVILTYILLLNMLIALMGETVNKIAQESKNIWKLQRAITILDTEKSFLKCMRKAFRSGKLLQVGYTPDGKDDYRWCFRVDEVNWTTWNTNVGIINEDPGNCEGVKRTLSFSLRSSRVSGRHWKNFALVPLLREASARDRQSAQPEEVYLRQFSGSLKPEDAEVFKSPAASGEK

Row | EC50 (human TRPA1) | agonist activity on TRPV1 compared to capsaicin (reference) (human TRPV1) | SMILES | agonist activity on TRPA1 compared to spilanthol (reference) (human TRPA1) | tingling sensation in the nose, isopulegol compared with menthoxypropanediol [2] | Nemenyi multiple comparison test of warming ranking vs reference capsaicin [3] | Mean rank (less warming = rank 1, more warming = rank 4) [3] | warming perception in the nose (rating), compared to the reference capsaicin [3] | other results
1 | 35.5 µM |  | C/C=C/C=C\CC/C=C/C(=O)NCC(C)C [spilanthol] |  |  |  |  |  | Mean rank (less tingling = rank 1, more tingling = rank 4) ([1]; 1% in TEC): 1.150; tingling perception in the nose (rating), compared to the reference spilanthol ([1]; 1% in Triethyl Citrate (TEC), scale 0 to 100, ANOVA and Student's t-test): little effect at all
2 | 57 µM |  | C=C(C)[C@@H]1CC[C@@H](C)C[C@H]1O [isopulegol] | comparable agonists for TRPA1 | improved tingling perception |  |  |  | 
3 |  | weaker agonists for TRPV1 than capsaicin | CCOCc1ccc(O)c(OC)c1 [vanillyl ethyl ether] |  |  | significantly more warming | 2.450 | improved warming perception | 
4 |  | weaker agonists for TRPV1 than capsaicin | CCCCOCc1ccc(O)c(OC)c1 [vanillyl butyl ether] |  |  | significantly more warming | 2.925 | improved warming perception | EC50 (human TRPV1): 7.58 µM
5 |  |  | COc1cc(CNC(=O)CCCC/C=C/C(C)C)ccc1O [capsaicin, reference compound] |  |  |  | 1.650 |  | 

Row | SMILES | EC50 (human TRPA1) | agonist activity on TRPV1 compared to capsaicin (reference) (human TRPV1) | agonist activity on TRPA1 compared to spilanthol (reference) (human TRPA1) | tingling sensation in the nose, isopulegol compared with menthoxypropanediol [2] | Nemenyi multiple comparison test of warming ranking vs reference capsaicin [3] | Mean rank (less warming = rank 1, more warming = rank 4) [3] | warming perception in the nose (rating), compared to the reference capsaicin [3] | other results
6 | CC(C)[C@@H]1CC[C@@H](C)C[C@H]1OCC(O)CO (stereo partly shown) [menthoxypropanediol] | 200 µM |  | comparable agonists for TRPA1 | lower tingling sensation |  |  |  | 
